The results in this text go back to patent publication US12617788B2, “Bridged bicyclic compounds as BTK inhibitors” (Beijing InnoCare Pharma Tech Co., Ltd., priority 2020, dated 2026).

For series [1], the target named is T1, human-derived recombinant BTK protein (Homo sapiens, UniProt Q06187).
T1 construct: purchased Carna Biosciences 08-180
Put plainly: BTK activity inhibition assay (HTRF kinase assay). Type of series: biochemical. The settings on record: 40 μM ATP. As to the method: In vitro kinase assay was used to evaluate the effects of compounds of the present invention on BTK activity (Table 1).
By using the homogeneous time-resolved fluorescence (HTRF) kinase detection kit (Cisbio, catalog number 62TK0PEC), the enzymatic activity of BTK is determined by detecting the phosphorylation level of the substrate in the kinase reaction. […]
(§1) Add 4 μL test compound solution and 2 μL kinase reaction solution to a 384-well detection plate (Corning, catalog number 3674), mix well and incubate at room temperature for 15 minutes; add 4 μL substrate reaction solution and incubate for 50 minutes; add 10 μL detection buffer, mix well and stand for 60 minutes; detect signal at 620 nm and 665 nm using an Envision plate reader (Perkin Elmer). The signal value (absorbance at 665 nm/absorbance at 620 nm) is positively correlated with the degree of phosphorylation of the substrate, thereby detecting the kinase activity of BTK. […] The inhibition curve is plotted and the corresponding IC50 value of the test compound is calculated using XLfit software (ID Business Solutions Ltd., UK).
A general note: TR-FRET usually uses a lanthanide donor and a delayed reading to cut background.

Series [2] deals with T2, human recombinant BTK C481S protein (Homo sapiens, UniProt Q06187, C481S).
T2 construct: made in house
T2 sequence (Q06187 whole entry C481S): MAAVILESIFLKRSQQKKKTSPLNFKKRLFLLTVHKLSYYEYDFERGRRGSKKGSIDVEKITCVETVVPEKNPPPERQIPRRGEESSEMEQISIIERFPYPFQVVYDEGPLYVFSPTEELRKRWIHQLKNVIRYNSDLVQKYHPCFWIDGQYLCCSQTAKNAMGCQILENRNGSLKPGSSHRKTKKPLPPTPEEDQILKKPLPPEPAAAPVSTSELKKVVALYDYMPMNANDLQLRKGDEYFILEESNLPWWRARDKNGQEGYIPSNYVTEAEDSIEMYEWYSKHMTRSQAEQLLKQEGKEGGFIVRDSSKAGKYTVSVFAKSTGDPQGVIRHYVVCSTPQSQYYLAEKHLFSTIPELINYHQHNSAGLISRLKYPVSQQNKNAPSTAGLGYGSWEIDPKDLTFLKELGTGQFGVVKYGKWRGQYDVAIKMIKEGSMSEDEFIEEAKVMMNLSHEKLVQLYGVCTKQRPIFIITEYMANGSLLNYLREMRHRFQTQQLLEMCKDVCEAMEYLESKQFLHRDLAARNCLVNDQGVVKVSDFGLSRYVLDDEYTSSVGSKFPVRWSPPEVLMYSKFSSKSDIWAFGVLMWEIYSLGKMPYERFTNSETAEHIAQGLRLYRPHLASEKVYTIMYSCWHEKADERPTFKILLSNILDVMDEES
Put plainly: BTK C481S activity inhibition assay (HTRF kinase assay). As to conditions: 35 μM ATP. Type of series: biochemical. As to the method: In vitro kinase assay was used to evaluate the effects of compounds of the present invention on BTK C481S activity (Table 1).
By using the homogeneous time-resolved fluorescence (HTRF) kinase detection kit (Cisbio, catalog number 62TK0PEC), the enzymatic activity of BTK C481S is determined by detecting the phosphorylation level of the substrate in the kinase reaction. […]
as §1, with “BTK C481S.” for “BTK.”

Series [3] can be described thus: Brain penetration activity test in rats. The series is classed as in vivo. As to conditions: for Brain penetration (result in words): male Sprague Dawley rats, oral 5 mg/kg; for Kp at 8 h: male, Sprague Dawley, rat, brain tissue homogenate / plasma, po, 5 mg/kg, AUCbrain/AUCplasma, samples at 1, 2, 4 and 8 hours. As for the experimental part: “CSF/plasma ratio (Kp, CSF)” refers to the ratio of a compound concentration in cerebrospinal fluid (CSF) vs. in plasma. The ability of a compound to cross blood-brain barrier (BBB) is assessed by measuring its concentrations in CSF and plasma in rodents, and determining the ratio (Kp, CSF).
Compound A or B in a 0.5 mg/mL solution containing 5% N,N-dimethylacetamide+10% solutol+85% saline was orally administered to twelve male Sprague Dawley rats at a dose of 5 mg/kg. Samples of plasma, brain tissue homogenate (for measuring Kp, brain) and cerebrospinal fluid (for measuring Kp, CSF) were collected at 1, 2, 4 and 8 hours after administration (from three animals at each time point).
The concentrations of the compound in plasma, brain tissue homogenate, and CSF were quantified by LC-MS/MS using an API-4500 mass spectrometer, respectively. The limit of quantification (LOQ) of analysis was 1 ng/mL. The pharmacokinetic (PK) parameters were calculated by the non-compartmental method using WinNonlin. Each of Kp, brain and Kp, CSF was calculated as AUCbrain/AUCplasma and AUCCSF/AUCplasma, respectively.

T1 sequence (Q06187 whole entry): as the sequence (Q06187 whole entry C481S) above, with S481C counted along it

For the compound `COc1ccc(F)cc1C(=O)NCc1ccc(-c2nc(C34CCC(C(=O)N5CCOCC5)(CC3)CC4)n3ncnc(N)c23)cc1` [Compound B, N-(4-(4-amino-7-(4-(morpholine-4-carbonyl)bicyclo[2.2.2]octan-1-yl)imidazo[5,1-f][1,2,4]triazin-5-yl)benzyl)-5-fluoro-2-methoxybenzamide], the IC50 in series [1] is 1 nM. Also, the IC50 in series [2] was found to be 1.2 nM. Further, in series [3], the “Brain penetration (result in words)” value is “non-brain penetrants” and the Kp at 8 h amounted to 0.0315.
For `COc1ccc(F)cc1C(=O)NCc1ccc(-c2nc(C34CCC(C(=O)O)(CC3)CC4)n3ncnc(N)c23)cc1` [Compound A, 4-(4-amino-5-(4-((5-fluoro-2-methoxybenzamido)methyl)phenyl)imidazo[5,1-f][1,2,4]triazin-7-yl)bicyclo[2.2.2]octane-1-carboxylic acid] the same measures were 0.7 nM, 1.3 nM, “non-brain penetrants” and 0.0355.

One may read the IC50 as the concentration that inhibits the measured activity by half. A word on the Kp: it is tissue or fluid exposure divided by exposure in the circulation.
